Test results reported in patent US20170224679A1, “Use of CXCR2 Antagonists For The Prevention and/or Treatment of Chemotherapy Induced Peripheral Neuropathy (CIPN)” (GlaxoSmithKline Intellectual Property Development Limited, priority 2014, published 2017).

Tests used:
CXCR2 receptor [1] = biological target: T1, CXCR2 receptor (Homo sapiens, UniProt P25025); assay: Calcium mobilization assay (FLIPR, IL-8 induced); type: cell-based; design: expressed in transfected cells; host or cells: CHO-K1 cells
T1 sequence (P25025 1-360): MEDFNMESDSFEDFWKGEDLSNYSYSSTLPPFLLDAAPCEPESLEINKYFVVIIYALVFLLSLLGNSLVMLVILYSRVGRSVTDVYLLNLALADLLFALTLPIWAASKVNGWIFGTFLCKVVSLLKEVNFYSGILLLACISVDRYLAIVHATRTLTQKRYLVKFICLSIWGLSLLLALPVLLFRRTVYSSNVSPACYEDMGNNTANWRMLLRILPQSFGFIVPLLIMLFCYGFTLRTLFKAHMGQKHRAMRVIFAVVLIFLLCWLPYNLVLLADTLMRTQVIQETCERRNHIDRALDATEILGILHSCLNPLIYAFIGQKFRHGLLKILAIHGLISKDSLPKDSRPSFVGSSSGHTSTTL
Procedure: CHO-K1 cells, stably expressing CXCR2 and Gαl6, were grown to 80% confluency in DMEM/F12 (HAM's) 1:1, w/10% FCS (heat inactivated), w/2 mM L-glutamine, w/0.4 mg/ml G418 while maintained at 37° C. in a 5% CO2 incubator. Twenty four hours prior to conducting the assay, the cells were harvested and plated (40,000 cells per well) in a 96 well, black wall, clear bottom plate (Packard View) and returned to the CO2 incubator. On the day of the assay, compounds were serially diluted in 100% DMSO to 300× the desired assay concentration. Growth media was aspirated from the cells and replaced with 100 μL of load media (EMEM with Earl's salts w/LGlutamine, 0.1% BSA, (Bovunlinar Cohen Fraction V from Seriologicals Corp.), 4 uM Fluo-4-acetoxymethyl ester fluorescent indicator dye (Fluo-4 AM, from Molecular Probes) and 2.5 mM probenecid) and incubated for 1 hour at 37° C. in a CO2 incubator. Load media was aspirated and replaced with 100 μL of EMEM with Earl's salts w/L-Glutamine, 0.1% gelatin and 2.5 mM probenecid and incubated for an additional 10 min. Serially diluted compound (3 μL) in DMSO at 300× was transferred to a 96 well plate containing 297 micro liters of KRH (120 mM NaCl, 4.6 mM KCl, 1.03 mM KH2PO4, 25 mM NaHCO3, 1.0 mM CaCl2, 1.1 mM MgCl2, 11 mM glucose, 20 mM HEPES (pH 7.4)) w/2.5 mM probenecid and 0.1% gelatin (compound now at 3×). […]

CXCR2 receptor [2] = biological target: T1, CXCR2 receptor; assay: Receptor binding assay ([125I] IL-8 SPA), CXCR2; design: expressed in transfected cells; host or cells: CHO cells (membranes)
Procedure: High levels of recombinant human CXCR1 and CXCR2 receptors were individually expressed in Chinese hamster ovary (CHO) cells as described in Holmes, et al., Science, 1991, 253, 1278, incorporated herein to the extent required to perform the present assay. The Chinese hamster ovary membranes were prepared according to Haour, et al., J. Biol. Chem., 249 pp 2195-2205 (1974), incorporated herein to the extent required to perform the present assay, except that the homogenization buffer was changed to 40 mM Tris-HCL pH 7.5 containing 1 mM MgSO4, 0.5 mM EDTA (ethylene-diaminetetra-acetic acid), 1 mM PMSF (α-toluene-sulphonyl fluoride), 2.5 mg/L Leupeptin and 0.1 mg/ml Aprotinin. Membrane protein concentration was determined using Bio-Rad Reagent using bovine serum albumin as a standard. All binding assays were conducted using Scintillation Proximity Assay (SPA assay) using wheatgerm agglutinin beads in a 96-well micro plate (optiplate 96, Packard) format. The CHO-CXCR2 and CHO-CXCR1 membranes were pre-incubated with the beads in binding buffer; 20 mM Bis Tris propane, pH 8 containing 25 mM NaCl, 1 mM MgSO4, 0.1 mM EDTA at 4° C. for 30 min prior to assay. The compound was diluted in 100% DMSO at 20 times the final concentration (final 1 nM to 1000 nM and 5% DMSO). […] At the end of the incubation the plates were spun for 5 min at 2000 RPM, and counted in a Top Count counter.

Caco-2 cell line = assay: Colorectal cancer cell line proliferation assay, Caco-2; type: cell-based; conditions: Caco-2, compound alone 8.5 μM, non-significant
Procedure: Cell proliferation assay: Cells were seeded in 96-well plates (Costar) at different cell densities: HCT116, 500 cells per well; Caco-2, 1000 cells per well. Total volume of the medium was 90 μl per well. Cells were incubated for 24 hours at 37° C. and 5% CO2 incubator.
The cell proliferation rate was measured by adding 100 μl of CellTiter-Glo™ (Promega) according to the manufacturer's instructions. After 10 minutes of incubation, the cell lysates were transferred into OptiPlate-384 well, the luminescence was recorded by BioTek Synergy™ 4 Hybrid Microplate Reader with Gen5 software. All data points were generated in five replicates. Three independent experiments were performed.
Data Analysis: pIC50 values were calculated by software GraphPad Prism 5 using sigmoidal concentration-response (variable slope). All data were presented as the mean±standard error of the mean determined from three independent experiments.

CXCR1 receptor = biological target: T2, CXCR1 receptor (Homo sapiens, UniProt P25024); assay: GPCR Arrestin Assay (DiscoveRX PathHunter), CXCR1; type: cell-based; design: host or cells: PathHunter CHO cell lines; conditions: PathHunter CHO cells, agonist at EC80; read-out: pIC50 against the CXCR1 receptor (converted)
T2 sequence (P25024 1-350): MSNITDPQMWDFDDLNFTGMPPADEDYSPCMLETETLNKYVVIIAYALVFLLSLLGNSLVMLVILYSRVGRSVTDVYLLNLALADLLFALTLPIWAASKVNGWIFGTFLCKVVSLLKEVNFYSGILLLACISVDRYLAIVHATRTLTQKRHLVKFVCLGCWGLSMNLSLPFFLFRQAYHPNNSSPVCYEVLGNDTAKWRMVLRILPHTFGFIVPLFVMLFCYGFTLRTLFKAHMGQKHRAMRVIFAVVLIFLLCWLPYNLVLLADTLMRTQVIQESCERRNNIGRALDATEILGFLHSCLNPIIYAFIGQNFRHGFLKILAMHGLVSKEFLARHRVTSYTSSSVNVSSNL
Procedure: Certain compounds of the invention were also tested by DiscoveRX Corporation (42501 Albrae Street, Fremont, Calif. 94538, United States) in their GPCR Arrestin Assay to determine their activity against a panel of receptors including CXCR2 and CXCR1. PathHunter CHO cell lines were expanded from freezer stocks according to standard procedures. Cells were seeded in a total volume of 20 μL into white walled, 384-well microplates and incubated at 37° C. for the appropriate time prior to testing. The cells were pre-incubated with antagonist followed by agonist challenge at the EC80 concentration. Intermediate dilution of sample stocks was performed to generate 5× sample in assay buffer. 5 μL of 5× sample was added to cells and incubated at 37° C. or room temperature for 30 minutes. […] Assay signal was generated through a single addition of 12.5 or 15 μL (50% v/v) of PathHunter Detection reagent cocktail, followed by one hour incubation at room temperature. Microplates were read following signal generation with a PerkinElmer Envision™ instrument for chemiluminescent signal detection. Compound activity was analyzed using CBIS data analysis suite (ChemInnovation, Calif.).

CXCR2 receptor [3] = biological target: T1, CXCR2 receptor; assay: Human whole blood assay version ii) (CD11b, GROα stimulated); type: cell-based; design: Assay d) measures the cellular functional activity to the native expressed human CXCR2 in whole blood; endogenous in cells; host or cells: human whole blood (neutrophils); conditions: 33 nM GROα, neutrophil CD11b, read-out: pIC50 against the CXCR2 receptor (converted)
Procedure: Blood was withdrawn by venipuncture from consented adults and poured into a Sterilin tube containing an anti-coagulant Heparin (10 μL/mL of blood). All the test compounds were dissolved in DMSO to 4 mM and serial diluted across the plate, 1 in 3 to provide 10 point dose response curves. The compounds were then diluted 100 fold in -PBS [Phosphate buffered saline (without Calcium Chloride and Magnesium Chloride)] after which, 1 μL was dispensed in 96 U bottom Costar plates using an FX. This was done to reduce the final DMSO concentration to 0.25% and for compounds to be screened at 10 uM final assay concentration, after addition of blood.
10 μL of blood was transferred to the compound plate using a multi-channel pipette, gently tapped and incubated for 15 minutes, at 37° C. After 15 minutes, the stimulant GROα was diluted to 100 nM in 0.1% BSA (Albumin Bovine Serum)-PBS and 5 μL is dispensed across the whole plate for a final concentration of 33 nM. The plate was gently tapped and incubated further for 15 minutes at 37° C. […]
Samples were run on a Becton and Dickinson (BD)-Acurri C6 Flow Cytometer using a HyperCyt sampling apparatus (IntelliCyt) with a flow rate 2 μL/sec. CD11 b upregulation is monitored in neutrophils and identified using a combination of both side scatter and CD16 expression.

Structure (SMILES) | Kb (CXCR2 receptor [1]) [nM] | IC50 (CXCR2 receptor [2]; [125I] IL-8 binding, CHO-CXCR2 membranes, read-out: pIC50 against the CXCR2 receptor (converted)) [nM] | selectivity for CXCR2 over CXCR1 (CXCR2 receptor [2]; receptor binding assay a)) [fold] | decrease of basal proliferation (Caco-2 cell line) [%] | IC50 (CXCR1 receptor) [nM] | IC50 (CXCR2 receptor [3]) [nM]
O=C(Nc1ccc(Cl)c(S(=O)(=O)N2CCNCC2)c1O)Nc1cccc(F)c1Cl [Compound of Formula (A), 1-(4-chloro-2-hydroxy-3-(piperazin-1-ylsulfonyl)phenyl)-3-(2-chloro-3-fluorophenyl)urea] | 3.98 | 15.8 | 188 | 2.7±2.1 |  | 
CN1CCC(C)(S(=O)(=O)c2c(Cl)ccc(NC(=O)Nc3cccc(F)c3Cl)c2O)CC1 [Compound of Formula (D), 1-(4-chloro-3-((1,4-dimethylpiperidin-4-yl)sulfonyl)-2-hydroxyphenyl)-3-(2-chloro-3-fluorophenyl)urea] |  |  |  |  | 2510 | 1580
